Results published in PubChem BioAssay (NCI).
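Each compound was tested at five concentrations against cells in 96-well plates for 48 hours. Definition used: TGI = concentration required for complete inhibition of growth.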 The source made the active and inactive calls. No stated cut-off is given here; in the data, active means GI50 below about 0.43 µM; inactive means the rest.

Experiments:
Assay in all cases: NCI tumour cell line growth inhibition, 48 h
SNB-19 CNS = system: SNB-19 CNS
CAKI-1 renal = system: CAKI-1 renal
KM12 colon = system: KM12 colon
MDA-MB-435 = system: MDA-MB-435
TK-10 renal = system: TK-10 renal
RPMI-8226 leukemia = system: RPMI-8226 leukemia
SK-MEL-28 melanoma = system: SK-MEL-28 melanoma
SR leukemia = system: SR leukemia
LOX IMVI melanoma = system: LOX IMVI melanoma
NCI-H522 lung = system: NCI-H522 lung
OVCAR-4 ovarian = system: OVCAR-4 ovarian
CCRF-CEM leukemia = system: CCRF-CEM leukemia
PC-3 prostate = system: PC-3 prostate
MDA-N = system: MDA-N
UACC-257 melanoma = system: UACC-257 melanoma
U251 CNS = system: U251 CNS
ACHN renal = system: ACHN renal
K-562 leukemia = system: K-562 leukemia
DU-145 prostate = system: DU-145 prostate
HCT-116 colon = system: HCT-116 colon
HOP-62 NSCLC = system: HOP-62 NSCLC
HS 578T breast = system: HS 578T breast
T-47D breast = system: T-47D breast
A498 renal = system: A498 renal
MCF7 breast = system: MCF7 breast
HL-60(TB) leukemia = system: HL-60(TB) leukemia
NCI-H460 lung = system: NCI-H460 lung
MDA-MB-231 breast = system: MDA-MB-231 breast
UO-31 renal = system: UO-31 renal
SN12C renal = system: SN12C renal
NCI-H226 lung = system: NCI-H226 lung
HCC-2998 colon = system: HCC-2998 colon
SW-620 colon = system: SW-620 colon
COLO 205 colon = system: COLO 205 colon
BT-549 breast = system: BT-549 breast
SNB-75 CNS = system: SNB-75 CNS
EKVX NSCLC = system: EKVX NSCLC
SK-MEL-2 melanoma = system: SK-MEL-2 melanoma
HT29 colon = system: HT29 colon
MOLT-4 leukemia = system: MOLT-4 leukemia
RXF 393 renal = system: RXF 393 renal
UACC-62 melanoma = system: UACC-62 melanoma
OVCAR-5 ovarian = system: OVCAR-5 ovarian
M14 melanoma = system: M14 melanoma
SF-295 CNS = system: SF-295 CNS
MALME-3M melanoma = system: MALME-3M melanoma
SF-539 CNS = system: SF-539 CNS
HCT-15 colon = system: HCT-15 colon
SF-268 CNS = system: SF-268 CNS
OVCAR-8 ovarian = system: OVCAR-8 ovarian
OVCAR-3 ovarian = system: OVCAR-3 ovarian
786-0 renal = system: 786-0 renal
NCI-H23 lung = system: NCI-H23 lung
SK-OV-3 ovarian = system: SK-OV-3 ovarian
A549 NSCLC = system: A549 NSCLC
NCI/ADR-RES ovarian = system: NCI/ADR-RES ovarian
SK-MEL-5 melanoma = system: SK-MEL-5 melanoma
HOP-92 NSCLC = system: HOP-92 NSCLC
IGROV1 ovarian = system: IGROV1 ovarian

`C[C@H](N)C(O)C/C=C\CC(O)/C=C/C=C\C/C=C\C/C=C\C/C=C\CCCCCCC(O)[C@H](C)N` (stereo partly drawn) was tested. Which outcome (SNB-19 CNS) did it give?
The outcome was “inactive”.

And the outcome (CAKI-1 renal)?
The outcome was “inactive”.

And the outcome (KM12 colon)?
Its outcome is “inactive”.

What about the outcome (MDA-MB-435) of the same compound?
The outcome was “inactive”.

And the outcome (TK-10 renal)?
Its outcome is “inactive”.

And the outcome (RPMI-8226 leukemia)?
Its outcome is “inactive”.

What about the outcome (SK-MEL-28 melanoma) of the same compound?
Its outcome is “inactive”.

And the outcome (SR leukemia)?
The outcome was “inactive”.

What about the outcome (LOX IMVI melanoma) of the same compound?
The outcome was “inactive”.

What about the outcome (NCI-H522 lung) of the same compound?
The outcome was “inactive”.

What about the outcome (OVCAR-4 ovarian) of the same compound?
The outcome was “inactive”.

And the outcome (CCRF-CEM leukemia)?
The outcome was “inactive”.

What about the outcome (PC-3 prostate) of the same compound?
Its outcome is “inactive”.

What about the outcome (MDA-N) of the same compound?
Its outcome is “inactive”.

What about the outcome (UACC-257 melanoma) of the same compound?
Its outcome is “inactive”.

And the outcome (U251 CNS)?
The outcome was “inactive”.

And the outcome (ACHN renal)?
Its outcome is “inactive”.

And the outcome (K-562 leukemia)?
Its outcome is “inactive”.

What about the outcome (DU-145 prostate) of the same compound?
Its outcome is “inactive”.

And the outcome (HCT-116 colon)?
Its outcome is “inactive”.

What about the outcome (HOP-62 NSCLC) of the same compound?
Its outcome is “inactive”.

And the outcome (HS 578T breast)?
The outcome was “inactive”.

And the outcome (T-47D breast)?
The outcome was “inactive”.

What about the outcome (A498 renal) of the same compound?
The outcome was “inactive”.

What about the outcome (MCF7 breast) of the same compound?
The outcome was “inactive”.

What about the outcome (HL-60(TB) leukemia) of the same compound?
The outcome was “inactive”.

And the outcome (NCI-H460 lung)?
Its outcome is “inactive”.

And the outcome (MDA-MB-231 breast)?
Its outcome is “inactive”.

And the outcome (UO-31 renal)?
The outcome was “inactive”.

What about the outcome (SN12C renal) of the same compound?
The outcome was “inactive”.

And the outcome (NCI-H226 lung)?
Its outcome is “inactive”.

And the outcome (HCC-2998 colon)?
The outcome was “inactive”.

And the outcome (SW-620 colon)?
The outcome was “inactive”.

And the outcome (COLO 205 colon)?
The outcome was “inactive”.

And the outcome (BT-549 breast)?
The outcome was “inactive”.

What about the outcome (SNB-75 CNS) of the same compound?
The outcome was “inactive”.

What about the outcome (EKVX NSCLC) of the same compound?
The outcome was “inactive”.

What about the outcome (SK-MEL-2 melanoma) of the same compound?
The outcome was “inactive”.

What about the outcome (HT29 colon) of the same compound?
Its outcome is “inactive”.

What about the outcome (MOLT-4 leukemia) of the same compound?
Its outcome is “inactive”.

What about the outcome (RXF 393 renal) of the same compound?
The outcome was “inactive”.

What about the outcome (UACC-62 melanoma) of the same compound?
The outcome was “inactive”.

What about the outcome (OVCAR-5 ovarian) of the same compound?
Its outcome is “inactive”.

And the outcome (M14 melanoma)?
The outcome was “inactive”.

And the outcome (SF-295 CNS)?
The outcome was “inactive”.

What about the outcome (MALME-3M melanoma) of the same compound?
Its outcome is “inactive”.

What about the outcome (SF-539 CNS) of the same compound?
Its outcome is “inactive”.

And the outcome (HCT-15 colon)?
The outcome was “inactive”.

What about the outcome (SF-268 CNS) of the same compound?
Its outcome is “inactive”.

What about the outcome (OVCAR-8 ovarian) of the same compound?
Its outcome is “inactive”.

What about the outcome (OVCAR-3 ovarian) of the same compound?
Its outcome is “inactive”.

What about the outcome (786-0 renal) of the same compound?
Its outcome is “inactive”.

What about the outcome (NCI-H23 lung) of the same compound?
Its outcome is “inactive”.

What about the outcome (SK-OV-3 ovarian) of the same compound?
Its outcome is “inactive”.

For `Cn1c(C(O)C2(c3cccnc3)SCCCS2)cc2ccccc21` (stereo not drawn), which TGI (SNB-19 CNS) is on record?
The TGI was over 100 µM.

And the TGI (CAKI-1 renal)?
Its TGI is over 100 µM.

What about the TGI (KM12 colon) of the same compound?
Its TGI is over 100 µM.

What about the TGI (MDA-MB-435) of the same compound?
The TGI was over 100 µM.

And the TGI (TK-10 renal)?
Its TGI is over 100 µM.

And the TGI (RPMI-8226 leukemia)?
The TGI was over 100 µM.

And the TGI (SK-MEL-28 melanoma)?
The TGI was over 100 µM.

And the TGI (SR leukemia)?
Its TGI is over 100 µM.

And the TGI (LOX IMVI melanoma)?
The TGI was over 100 µM.

And the TGI (OVCAR-4 ovarian)?
The TGI was over 100 µM.

And the TGI (A549 NSCLC)?
Its TGI is over 100 µM.

And the TGI (CCRF-CEM leukemia)?
The TGI was over 100 µM.

And the TGI (PC-3 prostate)?
The TGI was over 100 µM.

And the TGI (MDA-N)?
Its TGI is over 100 µM.

What about the TGI (UACC-257 melanoma) of the same compound?
Its TGI is over 100 µM.

And the TGI (U251 CNS)?
The TGI was over 100 µM.

And the TGI (ACHN renal)?
Its TGI is over 100 µM.

What about the TGI (NCI/ADR-RES ovarian) of the same compound?
Its TGI is over 100 µM.

What about the TGI (K-562 leukemia) of the same compound?
Its TGI is over 100 µM.

And the TGI (DU-145 prostate)?
The TGI was over 100 µM.

And the TGI (HCT-116 colon)?
Its TGI is over 100 µM.

What about the TGI (HOP-62 NSCLC) of the same compound?
The TGI was over 100 µM.

What about the TGI (T-47D breast) of the same compound?
The TGI was over 100 µM.

And the TGI (A498 renal)?
Its TGI is over 100 µM.

And the TGI (MCF7 breast)?
The TGI was over 100 µM.

And the TGI (HL-60(TB) leukemia)?
The TGI was over 100 µM.

What about the TGI (NCI-H460 lung) of the same compound?
The TGI was over 100 µM.

And the TGI (MDA-MB-231 breast)?
The TGI was over 100 µM.

And the TGI (UO-31 renal)?
The TGI was over 100 µM.

And the TGI (SN12C renal)?
The TGI was over 100 µM.

What about the TGI (NCI-H226 lung) of the same compound?
The TGI was over 100 µM.

What about the TGI (HCC-2998 colon) of the same compound?
The TGI was over 100 µM.

What about the TGI (SK-MEL-5 melanoma) of the same compound?
The TGI was over 100 µM.

And the TGI (SW-620 colon)?
The TGI was over 100 µM.

And the TGI (COLO 205 colon)?
Its TGI is over 100 µM.

And the TGI (BT-549 breast)?
The TGI was over 100 µM.

What about the TGI (SNB-75 CNS) of the same compound?
The TGI was over 100 µM.

And the TGI (EKVX NSCLC)?
The TGI was over 100 µM.

And the TGI (SK-MEL-2 melanoma)?
The TGI was over 100 µM.

And the TGI (HT29 colon)?
Its TGI is over 100 µM.

What about the TGI (UACC-62 melanoma) of the same compound?
The TGI was over 100 µM.

What about the TGI (OVCAR-5 ovarian) of the same compound?
Its TGI is over 100 µM.

What about the TGI (HOP-92 NSCLC) of the same compound?
Its TGI is over 100 µM.

And the TGI (M14 melanoma)?
The TGI was over 100 µM.

And the TGI (SF-295 CNS)?
The TGI was over 100 µM.

What about the TGI (MALME-3M melanoma) of the same compound?
The TGI was over 100 µM.

And the TGI (HCT-15 colon)?
The TGI was over 100 µM.

And the TGI (SF-268 CNS)?
Its TGI is over 100 µM.

What about the TGI (OVCAR-8 ovarian) of the same compound?
Its TGI is over 100 µM.

And the TGI (OVCAR-3 ovarian)?
Its TGI is over 100 µM.

And the TGI (786-0 renal)?
Its TGI is over 100 µM.

And the TGI (NCI-H23 lung)?
The TGI was over 100 µM.

What about the TGI (IGROV1 ovarian) of the same compound?
Its TGI is over 100 µM.

What about the TGI (SK-OV-3 ovarian) of the same compound?
The TGI was over 100 µM.
